Reference: US20250243171A1, “QUINAZOLINE COMPOUNDS FOR TREATMENT OF DISEASE” (Arthrosi Therapeutics, Inc., priority 2021, published 2025)

Tests used:
Assay in all cases: EC50 assay: Ba/F3 stable cell proliferation (CCK-8, 72 h)
Assay type in all cases: cell-based
Ba/F3 stable cells [1] = target: T1, Ba/F3 stable cells (Homo sapiens, UniProt P00533, DUP767-769, cells depend on it); conditions: Ba/F3-EGFR V769-D770insASV cells
T1 construct: EC50 Ba/F3-EGFR V769-D770insASV; other: Ba/F3-EGFR V769-D770insASV cells, 72 h, CCK-8
Method: (§1) 4,000 Ba/F3 stable cells/90 μL/well were plated onto 96-well cell culture plate (Grenier, Cat.No. 655180) and incubated at 37° C. with a humidified atmosphere of 5% CO2 for 2 h. Then the cells were treated with 10 μL compounds at serial titration. The final DMSO concentration is 0.1%. The cells treated with 0.1% DMSO (Vetec, Cat.No.V900090) as a positive control (Max), and medium with 0.1% DMSO was as a negative control (Min). Incubated the cells at 37° C. for 72 h. 10 μL the cell proliferation reagent CCK-8 (Dojindo, Cat.No. CK04 1000T) was added into each well and incubated the plate at 37° C. for 4 hours, the GD value was measured by SPECTRAmax plus (Molecular Devices) at 450 nm. Data processing with Graphpad 7.0.

Ba/F3 stable cells [2] = target: T2, Ba/F3 stable cells (Homo sapiens, UniProt P00533, DUP768-770, cells depend on it); conditions: Ba/F3-EGFR D770-N771insSVD cells
T2 construct: EC50 Ba/F3-EGFR D770-N771insSVD; other: Ba/F3-EGFR D770-N771insSVD cells, 72 h, CCK-8
Method: as §1

Ba/F3 stable cells [3] = target: T3, Ba/F3 stable cells (Homo sapiens, UniProt P00533, T790M/L858R, cells depend on it); conditions: Ba/F3-EGFR L858R-T790M cells
T3 construct: EC50 Ba/F3-EGFR L858R-T790M; other: Ba/F3-EGFR L858R-T790M cells, 72 h, CCK-8
Method: as §1

Ba/F3 stable cells [4] = target: T4, Ba/F3 stable cells (Homo sapiens, UniProt P04626, DUP772-775, cells depend on it); conditions: Ba/F3-HER2 A775-G776insYVMA cells
T4 construct: EC50 Ba/F3-HER2 A775-G776insYVMA; other: Ba/F3-HER2 A775-G776insYVMA cells, 72 h, CCK-8
Method: as §1

Ba/F3 stable cells [5] = target: T5, Ba/F3 stable cells (Homo sapiens, UniProt P00533, DUP771-773, cells depend on it); conditions: Ba/F3-EGFR H773-V774insNPH cells
T5 construct: EC50 Ba/F3-EGFR H773-V774insNPH; other: Ba/F3-EGFR H773-V774insNPH cells, 72 h, CCK-8
Method: as §1

Ba/F3 stable cells [6] = target: T6, Ba/F3 stable cells (Homo sapiens, UniProt P00533, INS763FQEA, cells depend on it); conditions: Ba/F3-EGFR A763-Y764insFQEA cells
T6 construct: EC50 Ba/F3-EGFR A763-Y764insFQEA; other: Ba/F3-EGFR A763-Y764insFQEA cells, 72 h, CCK-8
Method: as §1

T5 sequence (P00533 with tags, fused parts or gaps DUP771-773): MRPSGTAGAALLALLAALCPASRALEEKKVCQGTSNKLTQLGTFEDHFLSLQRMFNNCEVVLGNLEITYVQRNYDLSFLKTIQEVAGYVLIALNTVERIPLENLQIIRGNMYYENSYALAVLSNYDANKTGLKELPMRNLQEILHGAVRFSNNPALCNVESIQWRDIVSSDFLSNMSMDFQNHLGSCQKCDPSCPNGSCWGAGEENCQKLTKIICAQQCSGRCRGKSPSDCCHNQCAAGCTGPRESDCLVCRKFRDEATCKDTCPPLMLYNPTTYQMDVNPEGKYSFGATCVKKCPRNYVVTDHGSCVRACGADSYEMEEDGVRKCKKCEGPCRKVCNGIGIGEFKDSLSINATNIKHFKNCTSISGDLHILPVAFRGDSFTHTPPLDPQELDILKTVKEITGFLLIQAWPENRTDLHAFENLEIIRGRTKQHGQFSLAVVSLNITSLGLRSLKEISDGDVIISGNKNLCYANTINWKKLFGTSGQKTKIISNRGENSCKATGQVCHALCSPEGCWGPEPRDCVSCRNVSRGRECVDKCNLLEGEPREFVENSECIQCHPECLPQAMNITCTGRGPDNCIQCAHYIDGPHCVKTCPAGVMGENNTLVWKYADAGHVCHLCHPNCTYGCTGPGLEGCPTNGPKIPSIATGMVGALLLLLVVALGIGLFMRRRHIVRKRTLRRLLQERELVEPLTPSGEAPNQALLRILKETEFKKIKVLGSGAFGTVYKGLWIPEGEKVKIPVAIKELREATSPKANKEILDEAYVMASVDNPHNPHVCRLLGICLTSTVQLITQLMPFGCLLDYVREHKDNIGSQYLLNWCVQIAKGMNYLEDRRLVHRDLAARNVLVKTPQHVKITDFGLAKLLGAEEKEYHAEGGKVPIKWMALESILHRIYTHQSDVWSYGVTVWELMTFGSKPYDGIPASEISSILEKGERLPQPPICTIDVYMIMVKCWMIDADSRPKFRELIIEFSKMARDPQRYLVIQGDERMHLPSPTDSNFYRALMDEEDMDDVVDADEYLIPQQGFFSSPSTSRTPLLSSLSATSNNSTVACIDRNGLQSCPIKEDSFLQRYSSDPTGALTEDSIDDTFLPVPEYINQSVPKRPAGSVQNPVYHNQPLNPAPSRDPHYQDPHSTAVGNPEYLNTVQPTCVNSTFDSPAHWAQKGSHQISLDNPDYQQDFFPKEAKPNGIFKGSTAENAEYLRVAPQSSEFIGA
T4 sequence (P04626 with tags, fused parts or gaps DUP772-775): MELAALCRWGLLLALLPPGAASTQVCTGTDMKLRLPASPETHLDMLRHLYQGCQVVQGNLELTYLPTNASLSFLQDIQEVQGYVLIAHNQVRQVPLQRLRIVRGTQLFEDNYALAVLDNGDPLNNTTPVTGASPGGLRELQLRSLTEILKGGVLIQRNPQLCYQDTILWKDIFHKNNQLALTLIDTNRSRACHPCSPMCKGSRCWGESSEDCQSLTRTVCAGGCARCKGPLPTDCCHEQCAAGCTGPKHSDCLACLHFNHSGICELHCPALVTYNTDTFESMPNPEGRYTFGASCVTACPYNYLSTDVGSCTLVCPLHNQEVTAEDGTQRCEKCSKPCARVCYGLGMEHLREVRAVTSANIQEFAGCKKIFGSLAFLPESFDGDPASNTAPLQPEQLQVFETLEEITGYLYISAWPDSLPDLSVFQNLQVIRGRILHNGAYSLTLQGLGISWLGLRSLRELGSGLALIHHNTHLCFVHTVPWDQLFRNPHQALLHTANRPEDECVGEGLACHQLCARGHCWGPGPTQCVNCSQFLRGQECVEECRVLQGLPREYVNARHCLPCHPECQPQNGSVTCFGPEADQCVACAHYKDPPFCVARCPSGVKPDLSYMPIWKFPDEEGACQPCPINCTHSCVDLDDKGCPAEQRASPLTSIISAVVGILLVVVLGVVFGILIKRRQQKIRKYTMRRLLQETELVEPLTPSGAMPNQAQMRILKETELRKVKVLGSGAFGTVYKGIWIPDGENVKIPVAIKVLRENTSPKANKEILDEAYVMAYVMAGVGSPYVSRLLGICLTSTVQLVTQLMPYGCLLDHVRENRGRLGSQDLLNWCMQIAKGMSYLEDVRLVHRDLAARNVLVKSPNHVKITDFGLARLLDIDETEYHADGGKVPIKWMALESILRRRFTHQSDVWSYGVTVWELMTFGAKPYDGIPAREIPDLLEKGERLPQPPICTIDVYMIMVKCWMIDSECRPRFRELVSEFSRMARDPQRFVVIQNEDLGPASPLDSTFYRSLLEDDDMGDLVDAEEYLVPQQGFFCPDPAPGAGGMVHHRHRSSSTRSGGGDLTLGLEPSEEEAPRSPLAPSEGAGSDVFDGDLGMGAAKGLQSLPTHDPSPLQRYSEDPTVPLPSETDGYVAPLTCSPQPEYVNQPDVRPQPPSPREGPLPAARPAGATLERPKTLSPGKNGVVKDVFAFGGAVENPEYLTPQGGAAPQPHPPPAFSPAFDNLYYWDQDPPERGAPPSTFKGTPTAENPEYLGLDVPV
T3 sequence (P00533 whole entry T790M/L858R): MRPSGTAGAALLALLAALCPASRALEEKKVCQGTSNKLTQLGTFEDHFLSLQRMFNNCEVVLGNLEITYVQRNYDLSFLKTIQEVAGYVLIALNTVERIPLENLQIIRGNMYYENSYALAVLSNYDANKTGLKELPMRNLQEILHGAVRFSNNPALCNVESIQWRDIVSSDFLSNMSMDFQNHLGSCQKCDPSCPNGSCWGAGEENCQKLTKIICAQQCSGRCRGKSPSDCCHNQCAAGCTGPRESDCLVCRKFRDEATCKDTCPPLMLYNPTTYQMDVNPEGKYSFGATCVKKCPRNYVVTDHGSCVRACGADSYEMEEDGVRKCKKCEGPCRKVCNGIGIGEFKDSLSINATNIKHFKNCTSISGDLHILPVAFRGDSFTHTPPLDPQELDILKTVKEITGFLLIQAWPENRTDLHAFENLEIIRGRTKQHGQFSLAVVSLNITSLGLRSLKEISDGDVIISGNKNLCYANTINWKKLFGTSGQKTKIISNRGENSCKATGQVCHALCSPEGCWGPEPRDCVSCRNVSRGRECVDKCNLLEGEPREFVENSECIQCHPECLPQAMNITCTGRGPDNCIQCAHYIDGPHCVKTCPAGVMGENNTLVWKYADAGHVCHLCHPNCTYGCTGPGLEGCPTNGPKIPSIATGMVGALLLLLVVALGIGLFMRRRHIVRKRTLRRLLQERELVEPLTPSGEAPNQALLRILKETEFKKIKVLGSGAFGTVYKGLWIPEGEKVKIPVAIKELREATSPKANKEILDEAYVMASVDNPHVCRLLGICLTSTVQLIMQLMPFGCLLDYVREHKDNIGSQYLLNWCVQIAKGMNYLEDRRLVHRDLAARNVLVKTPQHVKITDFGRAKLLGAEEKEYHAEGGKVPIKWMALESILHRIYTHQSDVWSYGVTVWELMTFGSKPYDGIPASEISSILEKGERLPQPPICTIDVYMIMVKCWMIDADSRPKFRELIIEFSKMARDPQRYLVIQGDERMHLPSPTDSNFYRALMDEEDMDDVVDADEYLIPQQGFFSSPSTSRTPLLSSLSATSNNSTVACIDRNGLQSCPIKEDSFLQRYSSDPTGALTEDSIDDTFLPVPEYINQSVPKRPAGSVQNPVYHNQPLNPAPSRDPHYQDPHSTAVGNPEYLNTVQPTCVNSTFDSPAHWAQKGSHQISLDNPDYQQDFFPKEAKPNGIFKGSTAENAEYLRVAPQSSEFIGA
T2 sequence (P00533 with tags, fused parts or gaps DUP768-770): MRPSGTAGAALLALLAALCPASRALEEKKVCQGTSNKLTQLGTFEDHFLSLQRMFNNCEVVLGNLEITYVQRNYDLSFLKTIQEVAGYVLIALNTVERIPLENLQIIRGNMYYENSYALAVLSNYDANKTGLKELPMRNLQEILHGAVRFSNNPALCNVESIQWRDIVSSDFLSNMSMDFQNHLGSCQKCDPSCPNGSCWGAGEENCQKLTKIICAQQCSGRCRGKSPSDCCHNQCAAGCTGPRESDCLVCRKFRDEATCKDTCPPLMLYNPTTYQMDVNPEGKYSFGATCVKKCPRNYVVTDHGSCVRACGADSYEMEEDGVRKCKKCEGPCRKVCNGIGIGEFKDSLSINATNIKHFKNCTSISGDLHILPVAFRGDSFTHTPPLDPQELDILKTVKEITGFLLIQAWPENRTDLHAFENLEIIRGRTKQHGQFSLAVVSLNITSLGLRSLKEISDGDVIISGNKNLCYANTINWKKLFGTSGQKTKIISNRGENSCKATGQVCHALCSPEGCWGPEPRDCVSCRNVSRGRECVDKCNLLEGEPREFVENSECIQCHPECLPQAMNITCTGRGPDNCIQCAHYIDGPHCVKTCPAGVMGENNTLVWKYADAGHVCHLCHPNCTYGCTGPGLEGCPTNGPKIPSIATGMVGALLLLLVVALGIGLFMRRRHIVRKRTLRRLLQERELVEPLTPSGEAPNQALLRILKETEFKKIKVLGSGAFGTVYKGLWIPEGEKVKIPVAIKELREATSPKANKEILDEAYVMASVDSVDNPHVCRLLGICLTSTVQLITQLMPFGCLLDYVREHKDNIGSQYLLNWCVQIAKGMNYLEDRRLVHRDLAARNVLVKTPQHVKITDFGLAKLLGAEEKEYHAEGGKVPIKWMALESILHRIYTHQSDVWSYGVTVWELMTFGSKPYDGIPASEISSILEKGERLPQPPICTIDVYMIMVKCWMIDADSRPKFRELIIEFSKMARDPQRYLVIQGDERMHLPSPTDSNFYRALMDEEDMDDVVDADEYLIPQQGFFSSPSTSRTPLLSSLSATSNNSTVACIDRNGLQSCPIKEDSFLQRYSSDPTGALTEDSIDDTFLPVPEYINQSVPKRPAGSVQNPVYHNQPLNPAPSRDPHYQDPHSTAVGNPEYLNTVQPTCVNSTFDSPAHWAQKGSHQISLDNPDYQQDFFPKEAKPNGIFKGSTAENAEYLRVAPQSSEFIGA

SMILES | EC50 (Ba/F3 stable cells [1]) [nM] | EC50 (Ba/F3 stable cells [2]) [nM] | EC50 (Ba/F3 stable cells [3]) [nM] | EC50 (Ba/F3 stable cells [4]) [nM] | EC50 (Ba/F3 stable cells [5]) [nM] | EC50 (Ba/F3 stable cells [6]) [nM]
C=CC(=O)N1CC(c2cc3c(Nc4ccc(Cl)c(Cl)c4F)ncnc3cc2OCCN(C)C)C1 [Compound 26, 1-(3-(4-((3,4-dichloro-2-fluorophenyl)amino)-7-(2-(dimethylamino)ethoxy)quinazolin-6-yl)azetidin-1-yl)prop-2-en-1-one] | ≤ 200 | 200 to 1000 | 200 to 1000 | 200 to 1000 | 200 to 1000 | ≤ 200
C=CC(=O)N1CCC(Oc2cc3c(NCc4cccc(Br)c4)ncnc3cc2OC)CC1 [Compound 120, 1-(4-((4-((3-bromobenzyl)amino)-7-methoxyquinazolin-6-yl)oxy)piperidin-1-yl)prop-2-en-1-one] | ≤ 200 | ≤ 200 | 200 to 1000 | 200 to 1000 | ≤ 200 | ≤ 200
C=CC(=O)N1CCC(Oc2cc3c(NCc4ccc(F)c(Cl)c4)ncnc3cc2OC)CC1 [Compound 114, 1-(4-((4-((3-chloro-4-fluorobenzyl)amino)-7-methoxyquinazolin-6-yl)oxy)piperidin-1-yl)prop-2-en-1-one] | 200 to 1000 | 200 to 1000 | ≤ 200 | ≤ 200 | 200 to 1000 | ≤ 200
[2H]C([2H])([2H])Oc1cc2ncnc(Nc3ccc(Cl)c(Cl)c3F)c2cc1O[C@H]1C[C@@H](NC(=O)C=C)C1 [Compound 102, N-((1s,3s)-3-((4-((3,4-dichloro-2-fluorophenyl)amino)-7-(methoxy-d3)quinazolin-6-yl)oxy)cyclobutyl)acrylamide] | ≤ 200 | ≤ 200 | ≤ 200 | ≤ 200 | ≤ 200 | ≤ 200
C=CC(=O)N1CCC(Oc2cc3c(Nc4ccc5cccnc5c4)ncnc3cc2OC)CC1 [Compound 141, 1-(4-((7-methoxy-4-(quinolin-7-ylamino)quinazolin-6-yl)oxy)piperidin-1-yl)prop-2-en-1-one] | 200 to 1000 | > 1000 | 200 to 1000 | 200 to 1000 | 200 to 1000 | ≤ 200
C=CC(=O)N1CC(c2cc3c(Nc4ccc5c(c4)CCN5)ncnc3cc2OC)C1 [Compound 12, 1-(3-(4-(indolin-5-ylamino)-7-methoxyquinazolin-6-yl)azetidin-1-yl)prop-2-en-1-one] | > 1000 | > 1000 | > 1000 | > 1000 | > 1000 | > 1000
C=C(F)C(=O)N1CC(c2cc3c(Nc4ccc(Cl)c(Cl)c4F)ncnc3cc2OC)C1 [Compound 38, 1-(3-(4-((3,4-dichloro-2-fluorophenyl)amino)-7-methoxyquinazolin-6-yl)azetidin-1-yl)-2-fluoroprop-2-en-1-one] | 200 to 1000 | > 1000 | > 1000 | > 1000 | 200 to 1000 | ≤ 200
C=CC(=O)N1CCC(Oc2c(OC)cc3ncnc4c3c2NC(=O)N4c2ccc(Cl)c(Cl)c2F)CC1 [Compound 199, 9-((1-acryloylpiperidin-4-yl)oxy)-3-(3,4-dichloro-2-fluorophenyl)-8-methoxy-1H-pyrimido[4,5,6-de]quinazolin-2(3H)-one] | 200 to 1000 | 200 to 1000 | 200 to 1000 | 200 to 1000 | 200 to 1000 | ≤ 200
C=CC(=O)NC1CC(Oc2cc3c(Nc4ccc(C)c5c4CCC5)ncnc3cc2OC)C1 (stereo not drawn) [Compound 67, N-(3-((7-methoxy-4-((7-methyl-2,3-dihydro-1H-inden-4-yl)amino)quinazolin-6-yl)oxy)cyclobutyl)acrylamide] | > 1000 | > 1000 | > 1000 | > 1000 | > 1000 | 200 to 1000
C=CC(=O)N1CCC(c2cc3c(Nc4ccc(Cl)c(Cl)c4F)ncnc3cc2OC)CC1 [Compound 10, 1-(4-(4-((3,4-dichloro-2-fluorophenyl)amino)-7-methoxyquinazolin-6-yl)piperidin-1-yl)prop-2-en-1-one] | ≤ 200 | 200 to 1000 | > 1000 | 200 to 1000 | 200 to 1000 | ≤ 200
C=CC(=O)NC1CC(Oc2cc3c(Nc4ccc(Cl)c(Cl)c4)ncnc3cc2OC)C1 (stereo not drawn) [Compound 73, N-(3-((4-((3,4-dichlorophenyl)amino)-7-methoxyquinazolin-6-yl)oxy)cyclobutyl)acrylamide] | ≤ 200 | 200 to 1000 | > 1000 | 200 to 1000 | 200 to 1000 | ≤ 200
C=CC(=O)N1CCC(Oc2cc3c(Nc4ccc5ccccc5c4)ncnc3cc2OC)CC1 [Compound 148, 1-(4-((7-methoxy-4-(naphthalen-2-ylamino)quinazolin-6-yl)oxy)piperidin-1-yl)prop-2-en-1-one] | ≤ 200 | ≤ 200 | ≤ 200 | 200 to 1000 | ≤ 200 | ≤ 200
C#CC(=O)N1CC(c2cc3c(Nc4ccc(OCc5ccccc5)c(Cl)c4F)ncnc3cc2OC)C1 [Compound 41, 1-(3-(4-((4-(benzyloxy)-3-chloro-2-fluorophenyl)amino)-7-methoxyquinazolin-6-yl)azetidin-1-yl)prop-2-yn-1-one] | > 1000 | > 1000 | > 1000 | > 1000 | > 1000 | 200 to 1000
C=CC(=O)N1CCC(Oc2c(OC)cc3ncnc4c3c2C=C(C)N4c2ccc(Cl)c(Cl)c2F)CC1 [Compound 217, 1-(4-((4-(3,4-dichloro-2-fluorophenyl)-8-methoxy-5-methyl-4H-pyrido[2,3,4-de]quinazolin-7-yl)oxy)piperidin-1yl)prop-2-en-1-one] | ≤ 200 | 200 to 1000 | 200 to 1000 | > 1000 | 200 to 1000 | ≤ 200
C#CC(=O)N1CCC(Oc2c(OC)cc3ncnc4c3c2NC(=O)N4c2ccc(Cl)c(Cl)c2)CC1 [Compound 227, 3-(3,4-dichlorophenyl)-8-methoxy-9-((1-propioloylpiperidin-4-yl)oxy)-1H-pyrimido[4,5,6-de]quinazolin-2(3H)-one] | 200 to 1000 | 200 to 1000 | ≤ 200 | 200 to 1000 | ≤ 200 | ≤ 200
C=CC(=O)N1CCC(c2cc3c(Nc4ccc(Cl)c(Cl)c4F)ncnc3cc2OC)C1 (stereo not drawn) [Compound 3, 1-(3-(4-((3,4-dichloro-2-fluorophenyl)amino)-7-methoxyquinazolin-6-yl)pyrrolidin-1-yl)prop-2-en-1-one] | ≤ 200 | ≤ 200 | 200 to 1000 | ≤ 200 | ≤ 200 | ≤ 200
C=CS(=O)(=O)N1CCCC(c2ccc3ncnc(Nc4ccc(Cl)c(Cl)c4F)c3c2)C1 (stereo not drawn) [Compound 188, N-(3,4-dichloro-2-fluorophenyl)-6-(1-(vinylsulfonyl)piperidin-3-yl)quinazolin-4-amine] | ≤ 200 | 200 to 1000 | ≤ 200 | 200 to 1000 | ≤ 200 | ≤ 200
C=CC(=O)N1CCC(Oc2cc3c(C(=O)N[C@H](C)c4ccc(F)cc4)ncnc3cc2OC)CC1 [Compound 95, (R)-6-((1-acryloylpiperidin-4-yl)oxy)-N-(1-(4-fluorophenyl)ethyl)-7-methoxyquinazoline-4-carboxamide] | > 1000 | > 1000 | > 1000 | > 1000 | > 1000 | > 1000
C=CC(=O)N1CCC(Oc2cc3c(C(=O)NCc4ccc(F)cc4)ncnc3cc2OC)CC1 [Compound 94, 6-((1-acryloylpiperidin-4-yl)oxy)-N-(4-fluorobenzyl)-7-methoxyquinazoline-4-carboxamide] | > 1000 | > 1000 | > 1000 | > 1000 | > 1000 | ≤ 200
